For data set [1], the system named is human monocyte-derived dendritic cells (moDCs). The data set is described as follows: IL-1β secretion by human moDCs treated with lipid and R848. It counts as cell-based. As to conditions: for IL-1β secretion / IL-1β secretion, dependence on the NLRP3 inflammasome: human moDCs; for IL-1β secretion, dependence on the NLRP3 inflammasome: R848 + lipid with or without MCC950, one day, FIG. 3B; for hyperactivation of human dendritic cells: 41.25 μM lipid with R848 (Compound 1 also 20.6 μM). Here is the method: (§1) Human monocytes were isolated from Leukopaks purchased from Miltenyi using the StraightFrom Leukopak CD14 microbead kit (Miltenyi). Isolations were completed following manufacturer's instructions. Monocytes were then aliquoted and frozen in fetal bovine serum containing 10% dimethyl sulfoxide. For studies with monocyte-derived dendritic cell (moDC) cultures, monocytes were thawed and cultured in RPMI medium containing 10% FBS, 50 units/mL penicillin, […] streptomycin, 2 mM L-glutamine, 1 mM sodium pyruvate, […] beta-mercaptoethanol, 10 mM HEPES, and Gibco MEM non-essential amino acids (R10 media). To differentiate monocytes into moDCs, recombinant human GM-CSF (50 ng/mL) and IL-4 (25 ng/mL) were added to R10 media. Cells were cultured for 6 days with GM-CSF and IL-4, with an additional cell feeding with R10 containing GM-CSF and IL-4 on day 3.
Six days after differentiation, moDC were collected and counted. Cells were plated into 96-well flat-bottom plates at 1×10^5 cells/well. Cells were treated with or without 1 μg/mL R848 (final) and with or without a hyperactivating lipid (or vehicle control). In some experiments, MCC950, an inhibitor of the NLRP3 inflammasome, was added at a final concentration of 10 uM. In some experiments, nigericin, which causes NLRP3 inflammasome activation and subsequent pyroptosis, was used as a positive control at 20 uM. Cells and stimuli totaled a final volume of […].
Lipid stocks were then further diluted in PBS to treat cells.
After an overnight incubation, cells and culture supernatant were used for downstream readouts. One hundred and fifty microliters of cell supernatant were collected. Viability was measured using the CellTiter-Glo assay (Promega) which measures ATP content from cells. Fifty microliters of CellTiter-Glo reagent were added to 50 μL of cells. Luminescence was quantified on a SpectraMax m5e plate reader using an integration time of 500 milliseconds. Viability data were set relative to control conditions where cells were treated with only R848. To measure IL-1β secretion, the human IL-1β Lumit kit (Promega) was used to assay cell culture supernatant. Culture supernatant samples were incubated with enzyme-linked antibodies in a 384-well plate for 1 hour before addition of luminescent substrate. Samples were measured for luminescence with an integration time of 500 milliseconds. IL-1β concentrations of samples was determined by interpolation from a standard curve using 4-parameter logistic regression analysis. Studies were performed on three different human donor samples, and each biological condition was tested in triplicate. Graphed data represent means from each donor.
as §1, with “Human moDC Production. Human” for “Human”, “(Miltenyi) according to the” for “(Miltenyi). Isolations were completed following”, “To differentiate” for “For studies with”, “pyruvate, and” for “pyruvate,”, “beta-mercaptoethanol” for “beta-mercaptoethanol, 10 mM HEPES, and Gibco MEM non-essential amino acids”
Hyperactivating Lipid Formulation—Compound 10. Lipid stocks were formulated at 200 μg/mL lipid in 5% Kolliphor P407 (KP407) in PBS.

The next data set concerns murine FLT3L-DCs. Kind of data set: Murine bone marrow-derived FLT3L-DCs hyperactivation. It counts as cell-based, mice. The conditions noted are these: FLT3L DCs; for IL-1β secretion: 1 μg/mL R848 2-3 hours alone or then 41 uM lipid, 48 hours, FIG. 4A; for viability: R848 then 41 uM lipid, FIG. 4B. As to the method:
Murine bone marrow-derived FLT3L-DCs generation. Leg femur and tibia were removed from mice, cut with scissors, and flushed into sterile tubes. Bone marrow suspension was treated with ACK for 1 minute, then passed through a 40 um cell strainer. Cells were counted and resuspended in media consisting of complete IMDM containing 10% FBS, penicillin and streptomycin, and supplements of L-glutamine and sodium pyruvate (I10). […] For each experiment, 5 mice are used to collect BM and to generate DCs.
Lipid preparation. […] Lipid stocks were then further diluted in PBS to treat cells.
Murine bone marrow-derived FLT3L-DCs hyperactivation. BMDCs were harvested on day 8 post differentiation, washed with PBS, and re-plated in FLT3L-containing I10 at a concentration of 1×10^5 cells/mL. Cells were primed with or without 1 μg/mL R848 (final) then treated with or without a hyperactivating lipid (or vehicle control). Forty-eight hours post stimulation, supernatants were collected for cytokine measurement. Viability was measured using the CellTiter-Glo assay (Promega) which measures ATP content from cells. Fifty microliters of CellTiter-Glo reagent were added to 50 μL of cells. Luminescence was quantified on a SpectraMax m5e plate reader using an integration time of 500 milliseconds. Viability data were set relative to control conditions where cells were treated with R848. IL-1β and TNFα cytokine were measured using sandwich ELISAs (Invitrogen).

Another data set deals with human moDCs. Kind of data set: IL-6 secretion by human moDCs. As to conditions: human moDCs, 41.25 μM lipid with R848, compared with R848 + vehicle; FIG. 16. It counts as cell-based.
The mark [2] stands for this setting: 41.3 uM lipid with R848, FIG. 11.
Setting [3] is: 24 hours, lipid in 4% KP407 with R848, FIG. 2B.
[4] abbreviates: 41.25 μM lipid with R848, FIG. 17.
Setting [5] is: 41.3 uM lipid with R848 and MCC950, FIG. 11.
Setting [6] is: 20.6 uM lipid with R848 and 10 uM MCC950, FIG. 14.
The mark [7] stands for this setting: 20.6 uM lipid with R848 vs vehicle, FIG. 14.

Entries after “also recorded” stand apart in the source; their conditions may differ.

As for `CCCCCCCCCCCCCCCCCCCCCCOC[C@@H](O)CO` [Compound 9, (S)-3-(docosyloxy)propane-1,2-diol], the IL-1β secretion result in data set [1] (41.25 μM lipid with R848 vs vehicle control, FIG. 8) is recorded as “produced significantly more IL-1β”; in data set [1] (setting [2]) it was “robustly induced IL-113 secretion”; in data set [1] (setting [3]), “produced significantly more IL-1β”. For the same compound, the “IL-1β secretion, dependence on the NLRP3 inflammasome” value (from here on “IL-1β secretion, dependence”) in data set [1] is “depend on the NLRP3 inflammasome for IL-1β secretion”.

On to `CCCCCCCCCCCCCCCCCCCCCCOC[C@H](CO)OC(=O)N(C)C` [Compound 14, (S)-1-(docosyloxy)-3-hydroxypropan-2-yl dimethylcarbamate], for which the “hyperactivation of human dendritic cells” value in data set [1] is given as “did not”. Besides, the IL-1β secretion result in data set [1] (setting [4]) is recorded as “induced minimal IL-1β secretion”.

As for `CCCCCCCCCCCCCCCCCCCCCCOC[C@H](CO)OC(N)=O` [Compound 7, (S)-1-(docosyloxy)-3-hydroxypropan-2-yl carbamate], the “hyperactivation of moDC (IL-1β secretion with maintained viability)” value (“hyperactivation of moDC” below) in data set [1] (41.3 uM lipid with R848) is on record as “hyperactivating lipids”. The IL-1β secretion result is recorded as “induced secretion of IL-1β” in data set [1] (setting [2]), “significantly reduced” in data set [1] (setting [5]), “produced significantly more IL-1β” in data set [1] (setting [3]) and “induced the lowest levels of IL-1β secretion” with murine FLT3L-DCs. The “IL-1β secretion, dependence” value in data set [1] is recorded as “depend on the NLRP3 inflammasome for IL-1β secretion”. Besides, in the data set on murine FLT3L-DCs, the viability result is “viability was not compromised”.

Consider `CCCCCCCCCCCCCCCCCCOC[C@@H](O)CO` [Compound 12, (S)-3-(octadecyloxy)propane-1,2-diol], for which the “hyperactivation of moDC” value in data set [1] (20.6 uM lipid with R848) was “hyperactivating lipids”. Moreover, the “hyperactivation of human dendritic cells” value in data set [1] is reported as “hyperactivating lipids; also recorded: hyperactivated dendritic cells”. Further, the IL-1β secretion result is recorded as “inhibited” in data set [1] (setting [6]), “significantly more IL-1β was detected” in data set [1] (setting [7]) and “significantly increased IL-1β secretion” in data set [1] (setting [4]).

For `CCCCCCCCCCCCCCCCCCCCCCOC[C@H](CO)OC(=O)NC` [Compound 8, (S)-1-(docosyloxy)-3-hydroxypropan-2-yl methylcarbamate], in data set [1] (41.3 uM lipid with R848), the “hyperactivation of moDC” value is reported as “hyperactivating lipids”. Further, the IL-1β secretion result is “induced secretion of IL-1β” in data set [1] (setting [2]), “significantly reduced” in data set [1] (setting [5]), “produced significantly more IL-1β” in data set [1] (setting [3]) and “induced the lowest levels of IL-1β secretion” in the data set on murine FLT3L-DCs. In data set [1], the “IL-1β secretion, dependence” value was “depend on the NLRP3 inflammasome for IL-1β secretion”. Further, the viability entry with murine FLT3L-DCs is recorded as “viability was not compromised”.

Take “(R)-3-(docosyloxy)-2-((methylcarbamoyl)oxy) propyl (2-(trimethylammonio) ethyl) phosphate [Compound 4]”: the “hyperactivation of human dendritic cells” value in data set [1] is listed as “hyperactivating lipids; also recorded: hyperactivated dendritic cells”. Further, the IL-1β secretion entry in data set [1] (setting [4]) is “significantly increased IL-1β secretion”.

As to `CCCCCCCCCCCCCCCCCCCCCCOC[C@H](COP(=O)(O)O)OC(=O)NC` [Compound 6, (R)-1-(docosyloxy)-3-(phosphonooxy)propan-2-yl methylcarbamate], the “hyperactivation of human dendritic cells” value in data set [1] was “did not”. Moreover, the IL-1β secretion result in data set [1] (setting [4]) is given as “induced minimal IL-1β secretion”. Moreover, in the data set with human moDCs, the IL-6 secretion result is “IL-6 was secreted at similar levels”.

For `CCCCCCCCCCCCCCCCCCOC[C@H](COP(=O)(O)O)OC(=O)NC` [Compound 13, (R)-1-(octadecyloxy)-3-(phosphonooxy)propan-2-yl methylcarbamate], in data set [1], the “hyperactivation of human dendritic cells” value was “hyperactivating lipids; also recorded: hyperactivated dendritic cells”. The IL-1β secretion result in data set [1] (setting [4]) is reported as “significantly increased IL-1β secretion”.

Take “(R)-2-((dimethylcarbamoyl)oxy)-3-ethoxypropyl (2-(trimethylammonio)ethyl) phosphate-icosane (1/1) [Compound 16]”: the “hyperactivation of human dendritic cells” value in data set [1] was “hyperactivating lipids; also recorded: hyperactivated dendritic cells”. Moreover, in data set [1] (setting [4]), the IL-1β secretion entry is on record as “significantly increased IL-1β secretion”.

In the case of `CCCCCCCCCCCCCCCCCCOC[C@H](CO)OC(=O)NC` [Compound 11, (S)-1-hydroxy-3-(octadecyloxy)propan-2-yl methylcarbamate], the “hyperactivation of moDC” value in data set [1] (20.6 uM lipid with R848) is “hyperactivating lipids”. The “hyperactivation of human dendritic cells” value in data set [1] is given as “hyperactivating lipids; also recorded: hyperactivated dendritic cells”. Also, the IL-1β secretion entry was “inhibited” in data set [1] (setting [6]), “significantly more IL-1β was detected” in data set [1] (setting [7]) and “significantly increased IL-1β secretion” in data set [1] (setting [4]).

Source of the values: patent US20260097111A1, “ETHER LIPIDS FOR HYPERACTIVATION OF MAMMALIAN DENDRITIC CELLS” (priority 2022, published 2026).
